Assay results: US8268827B2, “Pyridazinone derivatives as PARP inhibitors” (Istituto di Ricerche di Biologia Molecolare P. Angeletti …, priority 2007, dated 2012)
Where a name gives a salt, the structure may show the parent alone.

Tests used:
[1] = target: T1, PARP-1 (Homo sapiens, UniProt P09874); experiment: PARP-1 SPA assay; assay type: biochemical
T1 construct: purchased Trevigen 4668-500-01
Description: Assay buffer: 100 mM Tris pH 8, 4 mM MgCl2, 4 mM Spermine, 200 mM KCl, 0.04% Nonidet P-40.
Nicotinamide-adenine dinucleotide (NAD)/DNA Mix: [^3H-NAD] (250 uCi/ml, 0.4 ul, Perkin-Elmer NET-443H), NAD (1.5 mM, 0.05 ul, SIGMA N-1511), Biotinylated-NAD (250 uM, 0.03 ul, Trevigen 4670-500-01), Activated calf thymus (1 mg/ml, 0.05 ul, Amersham Biosciences 27-4575), H2O (to 10 ul).
Developing Mix: Streptavidin SPA beads (5 mg/ml, Amersham Biosciences RPNQ 0007) dissolved in 500 mM EDTA.
The reaction is performed in 96-well microplate with a final volume of 50 uL/well. Add 5 ul 5% DMSO/compound solution, add enzyme mix (35 ul), start the reaction by adding NAD/DNA mix (10 uL) and incubate for 2 hrs at RT. Stop the reaction by adding developing mix (25 ul) and incubate 15 min at RT. Measure using a Packard TOP COUNT instrument.

[2] = test system: BRCA-1 silenced HeLa cells (HeLa shBRCA1-GFP); experiment: Proliferation assay in BRCA-1 silenced HeLa cells; assay type: cell-based; conditions: Homo sapiens; BRCA1 silenced HeLa cells, 168 hours; read-out: CC50 in the BRCA1 silenced HeLa cells
How it was run: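 HeLa cells with lentiviral shRNA BRCA1 knockdown (>80%), compared with control-vector HeLa, seeded at 300 cells/well. Compound exposure lasted 168 h at 37° C. Viability was read as resazurin-to-resorufin fluorescence (ex 550/em 590 nm).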

T1 sequence (P09874 whole entry): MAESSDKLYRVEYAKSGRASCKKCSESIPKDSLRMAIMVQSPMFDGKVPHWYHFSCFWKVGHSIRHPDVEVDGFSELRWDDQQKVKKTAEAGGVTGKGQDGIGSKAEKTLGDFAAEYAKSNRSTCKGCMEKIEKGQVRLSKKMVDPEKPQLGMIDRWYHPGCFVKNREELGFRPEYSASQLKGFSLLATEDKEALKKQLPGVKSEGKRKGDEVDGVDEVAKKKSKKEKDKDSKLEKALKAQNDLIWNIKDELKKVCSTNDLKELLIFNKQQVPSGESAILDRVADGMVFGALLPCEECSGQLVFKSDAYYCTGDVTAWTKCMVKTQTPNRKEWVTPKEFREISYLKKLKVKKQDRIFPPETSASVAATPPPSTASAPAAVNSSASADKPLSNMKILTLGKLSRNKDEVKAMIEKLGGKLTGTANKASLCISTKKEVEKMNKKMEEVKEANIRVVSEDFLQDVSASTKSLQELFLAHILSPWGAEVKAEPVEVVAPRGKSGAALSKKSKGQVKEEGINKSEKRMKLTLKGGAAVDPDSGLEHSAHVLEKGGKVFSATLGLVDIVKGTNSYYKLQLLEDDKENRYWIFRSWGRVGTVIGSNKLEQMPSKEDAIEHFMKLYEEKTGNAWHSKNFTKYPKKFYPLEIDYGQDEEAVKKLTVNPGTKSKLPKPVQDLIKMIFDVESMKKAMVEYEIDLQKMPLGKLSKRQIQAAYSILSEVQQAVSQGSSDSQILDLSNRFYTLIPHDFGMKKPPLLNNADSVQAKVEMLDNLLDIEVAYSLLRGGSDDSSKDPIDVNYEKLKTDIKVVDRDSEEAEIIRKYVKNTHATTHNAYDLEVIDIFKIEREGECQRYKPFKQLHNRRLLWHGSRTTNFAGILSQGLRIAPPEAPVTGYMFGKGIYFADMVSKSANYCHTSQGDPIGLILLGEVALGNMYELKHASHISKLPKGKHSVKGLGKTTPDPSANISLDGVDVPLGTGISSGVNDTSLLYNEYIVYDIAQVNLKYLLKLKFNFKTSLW

| IC50 [1] | Structure (SMILES) | CC50 [2] |
| --- | --- | --- |
| 5 to 25 nM | Cc1c(Cc2ccc(F)c(C(=O)N3CCN([C@@H]4CCCC[C@H]4c4ccccc4)C(=O)C3)c2)n[nH]c(=O)c1C [Example 67, 6-[4-Fluoro-3-({3-oxo-4-[(1R,2S)-2-phenylcyclohexyl]piperazin-1-yl}carbonyl)benzyl]-4,5-dimethyl-3-oxo-2,3-dihydropyridazin-1-ium trifluoroacetate] | 50 to 500 nM |
| 5 to 25 nM | Cc1c(Cc2ccc(F)c(C(=O)N3CCN(CC(F)(F)F)C(=O)C3)c2)n[nH]c(=O)c1C [Example 72, 6-(4-Fluoro-3-{[3-oxo-4-(2,2,2-trifluoroethyl)piperazin-1-yl]carbonyl}benzyl)-4,5-dimethyl-3-oxo-2,3-dihydropyridazin-1-ium trifluoroacetate] | 50 to 500 nM |
| < 5 nM | Cc1c(Cc2ccc(F)c(C(=O)N3CCN(C4CCCCCC4)C(=O)C3)c2)n[nH]c(=O)c1C [Example 73, 6-{3-[(4-Cycloheptyl-3-oxopiperazin-1-yl)carbonyl]-4-fluorobenzyl}-4,5-dimethyl-3-oxo-2,3-dihydropyridazin-1-ium trifluoroacetate] | < 50 nM |
| < 5 nM | Cc1c(Cc2ccc(F)c(C(=O)N3CCN(C4CCOC(C)(C)C4)C(=O)C3)c2)n[nH]c(=O)c1C (stereo not drawn) [Example 76, 6-(3-{[4-(2,2-Dimethyltetrahydro-2H-pyran-4-yl)-3-oxopiperazin-1-yl]carbonyl}-4-fluorobenzyl)-4,5-dimethylpyridazin-3(2H)-one trifluoroacetate] | < 5000 nM |
| < 5 nM | Cc1c(Cc2ccc(F)c(C(=O)N3CC(=O)N(c4ccccc4)C(C)(C)C3)c2)n[nH]c(=O)c1C [Example 77, 6-{3-[(3,3-Dimethyl-5-oxo-4-phenylpiperazin-1-yl)carbonyl]-4-fluorobenzyl}-4,5-dimethylpyridazin-3(2H)-one] | < 50 nM |
| 5 to 25 nM | O=C(c1cc(Cc2cc(C(F)(F)C(F)(F)F)c(=O)[nH]n2)ccc1F)N1CCN(C2CCCC2)C(=O)C1 [Example 81, 6-{3-[(4-Cyclopentyl-3-oxopiperazin-1-yl)carbonyl]-4-fluorobenzyl}-4-(pentafluoroethyl)pyridazin-3(2H)-one] | 50 to 500 nM |
| < 5 nM | Cc1c(Cc2ccc(F)c(C(=O)N3CC(=O)N4CCCC[C@@H]4C3)c2)n[nH]c(=O)c1C [Example 90, (9aR)-2-{5-[(4,5-Dimethyl-6-oxo-1,6-dihydropyridazin-3-yl)methyl]-2-fluorobenzoyl}octahydro-4H-pyrido[1,2-a]pyrazin-4-one trifluoroacetate] | < 50 nM |
| < 5 nM | Cc1c(Cc2ccc(F)c(C(=O)N3CCN(c4ccc(C#N)cc4)C(=O)C3)c2)n[nH]c(=O)c1C [Example 94, 3-(3-{[4-(4-Cyanophenyl)-3-oxopiperazin-1-yl]carbonyl}-4-fluorobenzyl)-4,5-dimethyl-6-oxo-1,6-dihydropyridazin-1-ium trifluoroacetate] | 50 to 500 nM |
| < 5 nM | Cc1c(Cc2ccc(F)c(C(=O)N3CCN(c4ccc(S(C)(=O)=O)cc4)C(=O)C3)c2)n[nH]c(=O)c1C [Example 95, 3-[4-Fluoro-3-({4-[4-(methylsulfonyl)phenyl]-3-oxopiperazin-1-yl}carbonyl)benzyl]-4,5-dimethyl-6-oxo-1,6-dihydropyridazin-1-ium trifluoroacetate] | 50 to 500 nM |
| 5 to 25 nM | Cc1c(Cc2ccc(F)c(C(=O)N3CCN(C(c4cccnc4)C(F)F)C(=O)C3)c2)n[nH]c(=O)c1C (stereo not drawn) [Example 96, 6-(3-{[4-(2,2-difluoro-1-pyridin-3-ylethyl)-3-oxopiperazin-1-yl]carbonyl}-4-fluorobenzyl)-4,5-dimethyl-3-oxo-2,3-dihydropyridazin-1-ium trifluoroacetate] | < 5000 nM |
| 5 to 25 nM | Cc1c(Cc2ccc(F)c(C(=O)N3CCN(CC4(C)CCCO4)C(=O)C3)c2)n[nH]c(=O)c1C (stereo not drawn) [Example 97, 6-[4-fluoro-3-({4-[(2-methyltetrahydrofuran-2-yl)methyl]-3-oxopiperazin-1-yl}carbonyl)benzyl]-4,5-dimethyl-3-oxo-2,3-dihydropyridazin-1-ium trifluoroacetate] | < 5000 nM |
| 5 to 25 nM | Cc1c(Cc2ccc(F)c(C(=O)N3CCN([C@H]4CCOC4)C(=O)C3)c2)n[nH]c(=O)c1C [Example 113, 6-[4-Fluoro-3-({3-oxo-4-[(3S)-tetrahydrofuran-3-yl]piperazin-1-yl}carbonyl)benzyl]-4,5-dimethylpyridazin-3(2H)-one] | 50 to 500 nM |
| 5 to 25 nM | Cc1c(Cc2ccc(F)c(C(=O)N3CC(=O)N(C4CCCC4)[C@@H](C)C3)c2)n[nH]c(=O)c1C [Example 114, 6-(3-{[(3S)-4-cyclopentyl-3-methyl-5-oxopiperazin-1-yl]carbonyl}-4-fluorobenzyl)-4,5-dimethylpyridazin-3(2H)-one] | < 50 nM |
| 5 to 25 nM | Cc1c(Cc2ccc(F)c(C(=O)N3CC(=O)N(C4CCCC4)[C@H](C)C3)c2)n[nH]c(=O)c1C [Example 115, 6-(3-{[(3R)-4-cyclopentyl-3-methyl-5-oxopiperazin-1-yl]carbonyl}-4-fluorobenzyl)-4,5-dimethylpyridazin-3(2H)-one] | < 5000 nM |
| 5 to 25 nM | Cc1c(Cc2ccc(F)c(C(=O)N3CCN(C4CCOCC4)C(=O)C3)c2)n[nH]c(=O)c1C [Example 120, 6-(4-fluoro-3-{[3-oxo-4-(tetrahydro-2H-pyran-4-yl)piperazin-1-yl]carbonyl}benzyl)-4,5-dimethyl-3-oxo-2,3-dihydropyridazin-1-ium trifluoroacetate] | < 5000 nM |
| 5 to 25 nM | Cc1c(Cc2ccc(F)c(C(=O)N3CC(=O)N(C4CCCCC4)C(C)C3)c2)n[nH]c(=O)c1C (stereo not drawn) [Example 125, 3-{3-[(4-Cyclohexyl-3-methyl-5-oxopiperazin-1-yl)carbonyl]-4-fluorobenzyl}-4,5-dimethyl-6-oxo-1,6-dihydropyridazin-1-ium trifluoroacetate] | < 50 nM |
| 5 to 25 nM | CCc1cc(Cc2ccc(F)c(C(=O)N3CCN(C4CCCOC4)C(=O)C3)c2)n[nH]c1=O (stereo not drawn) [Example 133, 4-ethyl-6-(4-fluoro-3-{[3-oxo-4-(tetrahydro-2H-pyran-3-yl)piperazin-1-yl]carbonyl}benzyl)-3-oxo-2,3-dihydropyridazin-1-ium trifluoroacetate] | 50 to 500 nM |
| 5 to 25 nM | CCc1cc(Cc2ccc(F)c(C(=O)N3CCN(CC(F)(F)F)C(=O)C3)c2)n[nH]c1=O [Example 134, 4-ethyl-6-(4-fluoro-3-{[3-oxo-4-(2,2,2-trifluoroethyl)piperazin-1-yl]carbonyl}benzyl)-3-oxo-2,3-dihydropyridazin-1-ium trifluoroacetate] | < 5000 nM |
| 5 to 25 nM | Cc1c(Cc2ccc(F)c(C(=O)N3CC(=O)N4CCCC[C@H]4C3)c2)n[nH]c(=O)c1C(F)(F)F [Example 135, 3-(4-Fluoro-3-{[(9aS)-4-oxooctahydro-2h-pyrido[1,2-a]pyrazin-2-yl]carbonyl}benzyl)-4-methyl-6-oxo-5-(trifluoromethyl)-1,6-dihydropyridazin-1-ium trifluoroacetate] | < 50 nM |
| < 5 nM | Cc1c(Cc2ccc(F)c(C(=O)N3CC(=O)N4CCOCC4C3)c2)n[nH]c(=O)c1C(F)(F)F (stereo not drawn) [Example 136, 3-{4-Fluoro-3-[(6-oxohexahydropyrazino[2,1-c][1,4]oxazin-8(1H)-yl)carbonyl]benzyl}-4-methyl-6-oxo-5-(trifluoromethyl)-1,6-dihydropyridazin-1-ium trifluoroacetate] | 50 to 500 nM |
| 5 to 25 nM | CCN1C(=O)CN(C(=O)c2cc(Cc3n[nH]c(=O)c(C)c3C)ccc2F)CC1C (stereo not drawn) [Example 137, 6-{3-[(4-ethyl-3-methyl-5-oxopiperazin-1-yl)carbonyl]-4-fluorobenzyl}-4,5-dimethyl-3-oxo-2,3-dihydropyridazin-1-ium trifluoroacetate] | 50 to 500 nM |
| 5 to 25 nM | COc1ccc(CN2C(=O)CN(C(=O)c3cc(Cc4n[nH]c(=O)c(C)c4C)ccc3F)CC2C)cc1 (stereo not drawn) [Example 138, 6-(4-fluoro-3-{[4-(4-methoxybenzyl)-3-methyl-5-oxopiperazin-1-yl]carbonyl}benzyl)-4,5-dimethyl-3-oxo-2,3-dihydropyridazin-1-ium trifluoroacetate] | 50 to 500 nM |
| 5 to 25 nM | Cc1c(Cc2ccc(F)c(C(=O)N3CC(=O)N(CC(F)(F)F)C(C)C3)c2)n[nH]c(=O)c1C (stereo not drawn) [Example 139, 6-(4-fluoro-3-{[3-methyl-5-oxo-4-(2,2,2-trifluoroethyl)piperazin-1-yl]carbonyl}benzyl)-4,5-dimethyl-3-oxo-2,3-dihydropyridazin-1-ium trifluoroacetate] | 50 to 500 nM |
| 5 to 25 nM | Cc1c(Cc2ccc(F)c(C(=O)N3CC(=O)N(C4C[C@H]5CC[C@@H]4C5)C(C)C3)c2)n[nH]c(=O)c1C (stereo partly drawn) [Example 140, 6-[3-({4-[(1R,4S)-bicyclo[2.2.1]hept-2-yl]-3-methyl-5-oxopiperazin-1-yl}carbonyl)-4-fluorobenzyl]-4,5-dimethyl-3-oxo-2,3-dihydropyridazin-1-ium trifluoroacetate] | < 50 nM |
